The target in assay [1] is NLRP3 inflammasome (Homo sapiens, UniProt Q96P20). As to the kind of experiment: NLRP3 inflammasome activation in THP1 macrophages (LPS priming, nigericin), IL-1β AlphaLISA. In kind it is cell-based. The following applies: PMA-differentiated THP1, LPS 20 ng/ml 3 hrs, compound 1 hr, Nigericin 6.7 uM 3 hrs, supernatant. On the technique in general: In Alpha technology, singlet oxygen from a donor bead excites a nearby acceptor bead.

The subject of assay [2] is IL-6. As to the kind of experiment: IL-6 release from LPS-primed, nigericin-treated THP1 macrophages, Hu IL-6 AlphaLISA. In kind it is cell-based. The following applies: Homo sapiens, THP-1; PMA-differentiated THP1, LPS 20 ng/ml 3 hrs, compound 1 hr, Nigericin 6.7 uM 3 hrs, supernatant.

Chain of NLRP3 inflammasome (Q96P20 whole entry): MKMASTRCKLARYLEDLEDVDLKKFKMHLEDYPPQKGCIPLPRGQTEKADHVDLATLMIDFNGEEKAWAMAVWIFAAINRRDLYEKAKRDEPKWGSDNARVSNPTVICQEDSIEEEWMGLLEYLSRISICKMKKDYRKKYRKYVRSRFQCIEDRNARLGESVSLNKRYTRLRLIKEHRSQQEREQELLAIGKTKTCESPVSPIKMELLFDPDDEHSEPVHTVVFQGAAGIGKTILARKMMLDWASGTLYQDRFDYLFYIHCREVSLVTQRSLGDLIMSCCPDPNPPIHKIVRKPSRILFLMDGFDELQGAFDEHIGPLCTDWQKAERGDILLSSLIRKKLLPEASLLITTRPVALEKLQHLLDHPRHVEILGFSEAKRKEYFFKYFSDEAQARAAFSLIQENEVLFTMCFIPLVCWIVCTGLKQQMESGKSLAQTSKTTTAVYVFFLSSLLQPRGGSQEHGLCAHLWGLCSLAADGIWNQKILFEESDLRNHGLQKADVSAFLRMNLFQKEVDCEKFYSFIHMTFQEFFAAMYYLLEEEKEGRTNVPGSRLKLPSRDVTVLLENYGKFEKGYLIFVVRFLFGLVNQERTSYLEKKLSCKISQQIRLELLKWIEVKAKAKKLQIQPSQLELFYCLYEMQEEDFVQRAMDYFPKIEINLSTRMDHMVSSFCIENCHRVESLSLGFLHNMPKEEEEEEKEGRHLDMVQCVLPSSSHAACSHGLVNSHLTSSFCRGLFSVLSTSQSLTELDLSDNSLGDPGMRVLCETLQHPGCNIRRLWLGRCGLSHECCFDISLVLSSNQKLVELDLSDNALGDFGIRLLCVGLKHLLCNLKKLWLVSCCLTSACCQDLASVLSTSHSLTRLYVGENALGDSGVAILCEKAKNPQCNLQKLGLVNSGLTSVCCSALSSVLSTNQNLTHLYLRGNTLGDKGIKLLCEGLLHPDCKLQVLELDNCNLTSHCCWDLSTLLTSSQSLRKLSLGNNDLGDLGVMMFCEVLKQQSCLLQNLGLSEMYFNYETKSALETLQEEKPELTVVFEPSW

Regarding `CCN1CCC[C@@H](Nc2cc(C)c(-c3ccc(C(F)(F)F)cc3)nn2)C1` [compound 1], the IC50 (as a rule, the point on the concentration scale where inhibition reaches its midpoint) is at most 10 nM in assay [1] and above 10000 nM in assay [2].

Take `Cc1cc(N[C@@H]2CCCN(C)C2)nnc1-c1ccc(C(F)(F)F)cc1` [compound 3, (R)-5-methyl-N-(1-methylpiperidin-3-yl)-6-(4-(trifluoromethyl)phenyl)-pyridazin-3-amine]: the IC50 in assay [1] lay within 10 to 50 nM; in assay [2] it was 5000 to 10000 nM.

For the molecule `CN1CCC[C@@H](Nc2ccc(-c3ccc(Cl)cc3C(F)(F)F)nn2)C1` [compound 4], the IC50 lay in the range of 10 to 50 nM in assay [1] and 5000 to 10000 nM in assay [2].

For `Cc1cc(N[C@@H]2CCCN(C)C2)nnc1-c1ccc(C(F)(F)F)cc1F` [compound 6], the 50% inhibitory concentration (IC50) in assay [1] was 10 to 50 nM; in assay [2], above 10000 nM.

Consider `Cc1cc(N[C@@H]2CCCN(C)C2)nnc1-c1ccc(OC(F)(F)F)cc1` [compound 7], for which the half-maximal inhibitory concentration (IC50) in assay [1] is 10 to 50 nM; in assay [2] it was above 10000 nM.

As to `COc1cc(C(F)(F)F)ccc1-c1nnc(N[C@@H]2CCCN(C)C2)cc1C` [compound 8], the values for the IC50 in assay [1] and in assay [2] were 10 to 50 nM and above 10000 nM, respectively.

Take `Cc1cc(C(F)(F)F)ccc1-c1nnc(N[C@@H]2CCCN(C)C2)cc1C` [compound 9]: the IC50 fell in the range of 10 to 50 nM in assay [1] and 1000 to 5000 nM in assay [2].

On to `CCc1cc(N[C@@H]2CCCN(C)C2)nnc1-c1ccc(C(F)(F)F)cc1` [compound 10], for which the results for the IC50 in assay [1] and in assay [2] were 10 to 50 nM and 5000 to 10000 nM, respectively.

On to `Cc1ccc(-c2nnc(N[C@@H]3CCCN(C)C3)cc2C)cc1` [compound 11], for which the results for the IC50 in assay [1] and in assay [2] were 10 to 50 nM and 1000 to 5000 nM, respectively.

On to `CCc1ccc(-c2nnc(N[C@@H]3CCCN(C)C3)cc2C)cc1` [compound 12], for which the values for the half-maximal inhibitory concentration (IC50) in assay [1] and in assay [2] were 10 to 50 nM and above 10000 nM, respectively.

As to `Cc1ccc(-c2nnc(N[C@@H]3CCCN(C)C3)cc2C(F)(F)F)cc1` [compound 13], the IC50 was in the range of 50 to 100 nM in assay [1] and 5000 to 10000 nM in assay [2].

On to `Cc1c(N[C@@H]2CCCN(C)C2)nnc(-c2ccc(C(F)(F)F)cc2)c1C` [compound 14], for which the IC50 in assay [1] is 10 to 50 nM; in assay [2], above 10000 nM.

`Cc1cc(N[C@@H]2CCCN(CCO)C2)nnc1-c1ccc(C(F)(F)F)cc1` [compound 15, 2-[(3R)-3-[[5-methyl-6-[4-(trifluoromethyl)phenyl]pyridazin-3-yl]amino]-1-piperidyl]ethanol]: the IC50 was 10 to 50 nM in assay [1] and above 10000 nM in assay [2].

Consider `Cc1cc(N[C@@H]2CCCN(C)C2)nnc1-c1ccc(F)cc1` [compound 16], for which the IC50 is 10 to 50 nM in assay [1] and above 10000 nM in assay [2].

In the case of `Cc1cc(N[C@@H]2C[C@@H](F)CN(C)C2)nnc1-c1ccc(C(F)(F)F)cc1` [compound 17], the IC50 in assay [1] is 50 to 100 nM; in assay [2] it was above 10000 nM.

As to `CN1CCC[C@@H](Nc2ccc(-c3ccc(Cl)cc3Cl)nn2)C1` [compound 18], the figures for the IC50 in assay [1] and in assay [2] were 50 to 100 nM and 5000 to 10000 nM, respectively.

For `Cc1cc(C(F)(F)F)ccc1-c1ccc(N[C@@H]2CCCN(C)C2)nn1` [compound 19], the IC50 in assay [1] was in the range of 100 to 500 nM; in assay [2], 5000 to 10000 nM.

As to `CN1CCC[C@@H](Nc2ccc(-c3ccc(C(F)(F)F)cc3Cl)nn2)C1` [compound 20], the IC50 in assay [1] was 100 to 500 nM; in assay [2], above 10000 nM.

On to `Cc1ccc(-c2ccc(N[C@@H]3CCCN(C)C3)nn2)c(C)c1` [compound 21], for which the 50% inhibitory concentration (IC50) fell in the range of 100 to 500 nM in assay [1] and 5000 to 10000 nM in assay [2].

Turning to `Cc1cc(N[C@@H]2CCCNC2)nnc1-c1ccc(C(F)(F)F)cc1` [compound 22], the values for the IC50 in assay [1] and in assay [2] were 50 to 100 nM and above 10000 nM, respectively.

Regarding `CC(C)c1cc(N[C@@H]2CCCN(C)C2)nnc1-c1ccc(C(F)(F)F)cc1` [compound 23], the IC50 is 100 to 500 nM in assay [1] and above 10000 nM in assay [2].

As to `CCN1CCC[C@@H](Nc2nnc(-c3ccc(C(F)(F)F)cc3)cc2C)C1` [compound 24], the 50% inhibitory concentration (IC50) is 100 to 500 nM in assay [1] and above 10000 nM in assay [2].

For `Cc1cc(N[C@@H]2CCCN(CCF)C2)nnc1-c1ccc(C(F)(F)F)cc1` [compound 25], the half-maximal inhibitory concentration (IC50) was 50 to 100 nM in assay [1] and above 10000 nM in assay [2].

On to `Cc1cc(N[C@@H]2CCCN(C)C2)nnc1-c1ccc(C(F)(F)F)c(F)c1` [compound 26], for which the IC50 is 100 to 500 nM in assay [1] and above 10000 nM in assay [2].

Regarding `Cc1cc(N[C@@H]2CCCN(C)C2)nnc1-c1ccc(F)cc1F` [compound 27], the values for the IC50 in assay [1] and in assay [2] were 100 to 500 nM and above 10000 nM, respectively.

For the molecule `Cc1cc(N[C@@H]2CCCN(C)C2)nnc1-c1ccc(C2CCC2)cc1` [compound 28], the IC50 in assay [1] lay within 100 to 500 nM; in assay [2], 5000 to 10000 nM.

Regarding `Cc1cc(-c2ccc(C(F)(F)F)cc2F)nnc1N[C@@H]1CCCN(C)C1` [compound 29], the IC50 in assay [1] is 100 to 500 nM; in assay [2] it was above 10000 nM.

As to `CCc1cc(-c2ccc(C(F)(F)F)cc2)nnc1N[C@@H]1CCCN(C)C1` [compound 30], the half-inhibitory concentration (IC50) in assay [1] was 100 to 500 nM; in assay [2], above 10000 nM.

With `Cc1cc(N[C@@H]2CCCN(C)C2)nnc1-c1ccc(C#N)cc1` [compound 31], the half-inhibitory concentration (IC50) in assay [1] is 100 to 500 nM; in assay [2] it was above 10000 nM.

For the molecule `COc1ccc(-c2nnc(N[C@@H]3CCCN(C)C3)cc2C)cc1` [compound 32], the 50% inhibitory concentration (IC50) in assay [1] is 100 to 500 nM; in assay [2], above 10000 nM.

Turning to `Cc1cc(N[C@@H]2CCCN(C)C2)nnc1-c1cc(C)c(F)c(C)c1` [compound 33], the IC50 in assay [1] was 100 to 500 nM; in assay [2], above 10000 nM.

`Cc1cc(N[C@@H]2CCCN(C)C2)nnc1-c1ccc(F)c(Cl)c1` [compound 34]: the IC50 is 100 to 500 nM in assay [1] and above 10000 nM in assay [2].

As for `COc1cc(C(F)(F)F)ccc1-c1cc(C)c(N[C@@H]2CCCN(C)C2)nn1` [compound 35], the IC50 in assay [1] was 500 to 1000 nM; in assay [2], above 10000 nM.

As to `Cc1cc(-c2ccc(C(F)(F)F)cc2)nnc1N[C@@H]1CCCN(C)C1` [compound 36], the IC50 in assay [1] was 500 to 1000 nM; in assay [2], above 10000 nM.

Take `Cc1cc(N[C@@H]2CCCN(C)C2)nnc1-c1cccc(C(C)C)c1` [compound 37]: the IC50 is 500 to 1000 nM in assay [1] and above 10000 nM in assay [2].

Consider `Cc1cc(-c2ccc(C(F)(F)F)c(F)c2)nnc1N[C@@H]1CCCN(C)C1` [compound 38], for which the half-maximal inhibitory concentration (IC50) in assay [1] is 500 to 1000 nM; in assay [2], above 10000 nM.

For the molecule `Cc1cc(N[C@@H]2CCCN(C)C2)nnc1-c1ccc(C(F)(F)F)c(Cl)c1` [compound 39], the IC50 in assay [1] is 500 to 1000 nM; in assay [2], above 10000 nM.

In the case of `Cc1cc(N[C@@H]2CCCN(C)C2)nnc1-c1ccc(C(F)(F)F)cc1C#N` [compound 40], the IC50 in assay [1] is 50 to 100 nM; in assay [2], 5000 to 10000 nM.

As for `CN1CCC[C@@H](Nc2nnc(-c3ccc(C(F)(F)F)cc3)cc2Cl)C1` [compound 41], the values for the IC50 in assay [1] and in assay [2] were 100 to 500 nM and above 10000 nM, respectively.

For `Cc1cc(C(F)(F)F)cc(C)c1-c1ccc(N[C@@H]2CCCN(C)C2)nn1` [compound 42], the IC50 in assay [1] lay within 500 to 1000 nM; in assay [2], 5000 to 10000 nM.

As for `Cc1cc(N[C@@H]2CCCN(C)C2)nnc1-c1cccc(Cl)c1` [compound 43], the figures for the half-maximal inhibitory concentration (IC50) in assay [1] and in assay [2] were above 1000 nM and 5000 to 10000 nM, respectively.

As to `Cc1cccc(-c2nnc(N[C@@H]3CCCN(C)C3)cc2C)c1` [compound 44], the IC50 in assay [1] is 100 to 500 nM; in assay [2] it was above 10000 nM.

As for `Cc1cc(N[C@@H]2CCCN(C)C2)nnc1-c1cccc(F)c1` [compound 45], the IC50 in assay [1] was above 1000 nM; in assay [2], above 10000 nM.

For `Cc1cc(N[C@@H]2CCCN(C)C2)nnc1-c1cccc(C(F)(F)F)c1` [compound 46], the IC50 was above 1000 nM in assay [1] and above 10000 nM in assay [2].

With `Cc1cc(-c2cccc(C(F)(F)F)c2)nnc1N[C@@H]1CCCN(C)C1` [compound 47], the figures for the IC50 in assay [1] and in assay [2] were above 1000 nM and above 10000 nM, respectively.

As for `Cc1cc(N[C@@H]2CCCN(C)C2)nnc1-c1cccc(C#N)c1` [compound 50], the IC50 in assay [1] is above 1000 nM; in assay [2], above 10000 nM.

With `Cc1cc(-c2cccc(C#N)c2)nnc1N[C@@H]1CCCN(C)C1` [compound 51], the figures for the IC50 in assay [1] and in assay [2] were above 1000 nM and above 10000 nM, respectively.

As for `COc1cccc(-c2nnc(N[C@@H]3CCCN(C)C3)cc2C)c1` [compound 52], the results for the IC50 in assay [1] and in assay [2] were above 1000 nM and above 10000 nM, respectively.

For `COc1cccc(-c2cc(C)c(N[C@@H]3CCCN(C)C3)nn2)c1` [compound 53], the IC50 is above 1000 nM in assay [1] and above 10000 nM in assay [2].

Consider `Cc1cc(N[C@@H]2CCCN(C)C2)nnc1-c1ccccc1` [compound 54], for which the IC50 is above 1000 nM in assay [1] and above 10000 nM in assay [2].

As to `CCc1cccc(-c2nnc(N[C@@H]3CCCN(C)C3)cc2C)c1` [compound 55], the results for the IC50 in assay [1] and in assay [2] were above 1000 nM and above 10000 nM, respectively.

As for `Cc1cc(-c2cccc(F)c2)nnc1N[C@@H]1CCCN(C)C1` [compound 56], the results for the IC50 in assay [1] and in assay [2] were above 1000 nM and above 10000 nM, respectively.

For the molecule `COc1ccc(-c2cc(C)c(N[C@@H]3CCCN(C)C3)nn2)cc1` [compound 58], the figures for the IC50 in assay [1] and in assay [2] were above 1000 nM and above 10000 nM, respectively.

Regarding `CN1CCC[C@@H](Nc2cc(C#N)c(-c3ccc(C(F)(F)F)cc3)nn2)C1` [compound 59], the figures for the IC50 in assay [1] and in assay [2] were 50 to 100 nM and above 10000 nM, respectively.

Consider `Cc1cc(N[C@@H]2CCCN(CC(F)F)C2)nnc1-c1ccc(C(F)(F)F)cc1` [compound 60], for which the IC50 in assay [1] fell in the range of 100 to 500 nM; in assay [2], 5000 to 10000 nM.

For `CN1CCC[C@@H](Nc2cc(C(F)(F)F)c(-c3ccc(C(F)(F)F)cc3)nn2)C1` [compound 61], the IC50 in assay [1] is 10 to 50 nM; in assay [2], above 10000 nM.

Regarding `Cc1cc(-c2nnc(N[C@@H]3CCCN(C)C3)cc2C)ccc1F` [compound 62], the 50% inhibitory concentration (IC50) in assay [1] was 10 to 50 nM; in assay [2], above 10000 nM.

Turning to `Cc1cc(N[C@@H]2CCCN(C)C2)nnc1-c1ccc(C(F)(F)F)c(C#N)c1` [compound 63], the figures for the IC50 in assay [1] and in assay [2] were 100 to 500 nM and above 10000 nM, respectively.

Source of the values: patent US20250074888A1, “PYRIDAZINE DERIVATIVES AS MODULATORS OF NLRP3 INFLAMMASOME AND RELATED METHODS” (Neumora Therapeutics, Inc., priority 2021, published 2025).
